Results published in US11718604B2, “4-amino-6-(1,3-benzodioxole)picolinates and their use as herbicides” (Dow AgroSciences LLC, priority 2018, dated 2023).

Columns and labels:
Assay type in all cases: in vivo
[1] = tested on: ABUTH: velvetleaf (Abutilon theophrasti); test: Post-emergent herbicidal test, velvetleaf; conditions: post-emergence, 336 h, 14 days after application, read-out: Visual Growth Reduction (%) 14 Days After Application ABUTH; for pest or weed control at 17.5 g/ha: 17.5 g ai/ha; for pest or weed control at 35 g/ha: 35 g ai/ha; for pest or weed control at 70 g/ha: 70 g ai/ha; for pest or weed control at 140 g/ha: 140 g ai/ha
Procedure, shortened: (§1)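 Visual injury ratings (0 = no injury, 100% = complete kill) were made 14 d after post-emergence application versus untreated plants. Treatment: track-sprayer application at 187 L/ha to plants at first/second true leaf, in aqueous acetone/DMSO with crop oil concentrate and Triton X-155, as a high rate serially halved to 1/16×.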

[2] = tested on: BRSNN: oilseed rape, canola (Brassica napus); test: Post-emergent herbicidal test, oilseed rape; conditions: post-emergence, 336 h, 14 days after application, read-out: Visual Growth Reduction (%) 14 Days After Application BRSNN; for pest or weed control at 17.5 g/ha: 17.5 g ai/ha; for pest or weed control at 35 g/ha: 35 g ai/ha; for pest or weed control at 70 g/ha: 70 g ai/ha; for pest or weed control at 140 g/ha: 140 g ai/ha
Procedure, shortened: as §1

[3] = tested on: CIRAR: Canada thistle (Cirsium arvense); test: Post-emergent herbicidal test, Canada thistle; conditions: post-emergence, 336 h, 14 days after application, read-out: Visual Growth Reduction (%) 14 Days After Application CIRAR; for pest or weed control at 17.5 g/ha: 17.5 g ai/ha; for pest or weed control at 35 g/ha: 35 g ai/ha; for pest or weed control at 70 g/ha: 70 g ai/ha; for pest or weed control at 140 g/ha: 140 g ai/ha
Procedure, shortened: as §1

[4] = tested on: EPHHL: wild poinsettia (Euphorbia heterophylla); test: Post-emergent herbicidal test, wild poinsettia; conditions: post-emergence, 336 h, 14 days after application, read-out: Visual Growth Reduction (%) 14 Days After Application EPHHL; for pest or weed control at 17.5 g/ha: 17.5 g ai/ha; for pest or weed control at 35 g/ha: 35 g ai/ha; for pest or weed control at 70 g/ha: 70 g ai/ha; for pest or weed control at 140 g/ha: 140 g ai/ha
Procedure, shortened: as §1

[5] = tested on: IPOHE: ivyleaf morningglory (Ipomoea hederacea); test: Post-emergent herbicidal test, ivyleaf morningglory; conditions: post-emergence, 336 h, 14 days after application, read-out: Visual Growth Reduction (%) 14 Days After Application IPOHE; for pest or weed control at 17.5 g/ha: 17.5 g ai/ha; for pest or weed control at 35 g/ha: 35 g ai/ha; for pest or weed control at 70 g/ha: 70 g ai/ha; for pest or weed control at 140 g/ha: 140 g ai/ha
Procedure, shortened: as §1

[6] = tested on: VIOTR: wild violet (Viola tricolor); test: Post-emergent herbicidal test, wild violet; conditions: post-emergence, 336 h, 14 days after application, read-out: Visual Growth Reduction (%) 14 Days After Application VIOTR; for pest or weed control at 17.5 g/ha: 17.5 g ai/ha; for pest or weed control at 35 g/ha: 35 g ai/ha; for pest or weed control at 70 g/ha: 70 g ai/ha; for pest or weed control at 140 g/ha: 140 g ai/ha
Procedure, shortened: as §1

[7] = tested on: CYPES: yellow nutsedge (Cyperus esculentus); test: Post-emergent herbicidal test, yellow nutsedge; conditions: post-emergence, 336 h, 14 days after application, read-out: Visual Growth Reduction (%) 14 Days After Application CYPES; for pest or weed control at 17.5 g/ha: 17.5 g ai/ha; for pest or weed control at 35 g/ha: 35 g ai/ha; for pest or weed control at 70 g/ha: 70 g ai/ha; for pest or weed control at 140 g/ha: 140 g ai/ha
Procedure, shortened: as §1

[8] = tested on: DIGSA: large crabgrass (Digitaria sanguinalis); test: Post-emergent herbicidal test, large crabgrass; conditions: post-emergence, 336 h, 14 days after application, read-out: Visual Growth Reduction (%) 14 Days After Application DIGSA; for pest or weed control at 17.5 g/ha: 17.5 g ai/ha; for pest or weed control at 35 g/ha: 35 g ai/ha; for pest or weed control at 70 g/ha: 70 g ai/ha; for pest or weed control at 140 g/ha: 140 g ai/ha
Procedure, shortened: as §1

[9] = tested on: ECHCG: barnyardgrass (Echinochloa crus-galli); test: Post-emergent herbicidal test, barnyardgrass; conditions: post-emergence, 336 h, 14 days after application, read-out: Visual Growth Reduction (%) 14 Days After Application ECHCG; for pest or weed control at 17.5 g/ha: 17.5 g ai/ha; for pest or weed control at 35 g/ha: 35 g ai/ha; for pest or weed control at 70 g/ha: 70 g ai/ha; for pest or weed control at 140 g/ha: 140 g ai/ha
Procedure, shortened: as §1

[10] = tested on: SETFA: giant foxtail (Setaria faberi); test: Post-emergent herbicidal test, giant foxtail; conditions: post-emergence, 336 h, 14 days after application, read-out: Visual Growth Reduction (%) 14 Days After Application SETFA; for pest or weed control at 17.5 g/ha: 17.5 g ai/ha; for pest or weed control at 35 g/ha: 35 g ai/ha; for pest or weed control at 70 g/ha: 70 g ai/ha; for pest or weed control at 140 g/ha: 140 g ai/ha
Procedure, shortened: as §1

[11] = tested on: SORVU: shattercane (Sorghum bicolor); test: Post-emergent herbicidal test, shattercane; conditions: post-emergence, 336 h, 14 days after application, read-out: Visual Growth Reduction (%) 14 Days After Application SORVU; for pest or weed control at 17.5 g/ha: 17.5 g ai/ha; for pest or weed control at 35 g/ha: 35 g ai/ha; for pest or weed control at 70 g/ha: 70 g ai/ha; for pest or weed control at 140 g/ha: 140 g ai/ha
Procedure, shortened: as §1

With COC(=O)c1nc(-c2ccc(Br)c3c2OC(F)(F)O3)c(F)c(N)c1Cl [Compound 9] the pest or weed control at 17.5 g/ha [1] was 80%, the pest or weed control at 35 g/ha [1] was 85% and the pest or weed control at 70 g/ha [1] was 85%. For the same compound, the pest or weed control at 140 g/ha [1] was 85%, the pest or weed control at 17.5 g/ha [2] was 60% and the pest or weed control at 35 g/ha [2] was 60%. The pest or weed control at 70 g/ha [2] was 75%, the pest or weed control at 140 g/ha [2] was 75% and the pest or weed control at 17.5 g/ha [3] was 70%. For the same compound, the pest or weed control at 35 g/ha [3] was 80%, the pest or weed control at 70 g/ha [3] was 85% and the pest or weed control at 140 g/ha [3] was 85%. For the same compound, the pest or weed control at 17.5 g/ha [4] was 0%, the pest or weed control at 35 g/ha [4] was 0% and the pest or weed control at 70 g/ha [4] was 0%. It also gave a pest or weed control at 140 g/ha [4] of 0%, a pest or weed control at 17.5 g/ha [5] of 0% and a pest or weed control at 35 g/ha [5] of 0%. The pest or weed control at 70 g/ha [5] was 0%, the pest or weed control at 140 g/ha [5] was 0% and the pest or weed control at 17.5 g/ha [6] was 0%. For the same compound, the pest or weed control at 35 g/ha [6] was 0%, the pest or weed control at 70 g/ha [6] was 20% and the pest or weed control at 140 g/ha [6] was 20%. For the same compound, the pest or weed control at 17.5 g/ha [7] was 0%, the pest or weed control at 35 g/ha [7] was 0% and the pest or weed control at 70 g/ha [7] was 0%. The pest or weed control at 140 g/ha [7] was 0%, the pest or weed control at 17.5 g/ha [8] was 0% and the pest or weed control at 35 g/ha [8] was 0%. For the same compound, the pest or weed control at 70 g/ha [8] was 0%, the pest or weed control at 140 g/ha [8] was 0% and the pest or weed control at 17.5 g/ha [9] was 0%. It also gave a pest or weed control at 35 g/ha [9] of 0%, a pest or weed control at 70 g/ha [9] of 0% and a pest or weed control at 140 g/ha [9] of 0%. The pest or weed control at 17.5 g/ha [10] was 0%, the pest or weed control at 35 g/ha [10] was 0% and the pest or weed control at 70 g/ha [10] was 0%. It also gave a pest or weed control at 140 g/ha [10] of 0%, a pest or weed control at 17.5 g/ha [11] of 0% and a pest or weed control at 35 g/ha [11] of 0%. For the same compound, the pest or weed control at 70 g/ha [11] was 10% and the pest or weed control at 140 g/ha [11] was 10%.

With COC(=O)c1nc(-c2cccc3c2OC(F)(F)O3)c(F)c(N)c1Cl [Compound 4] the pest or weed control at 17.5 g/ha [1] was 70%, the pest or weed control at 35 g/ha [1] was 80% and the pest or weed control at 70 g/ha [1] was 80%. For the same compound, the pest or weed control at 140 g/ha [1] was 85%, the pest or weed control at 17.5 g/ha [2] was 85% and the pest or weed control at 35 g/ha [2] was 90%. It also gave a pest or weed control at 70 g/ha [2] of 95%, a pest or weed control at 140 g/ha [2] of 95% and a pest or weed control at 17.5 g/ha [3] of 80%. The pest or weed control at 35 g/ha [3] was 90%, the pest or weed control at 70 g/ha [3] was 95% and the pest or weed control at 140 g/ha [3] was 90%. The pest or weed control at 17.5 g/ha [4] was 0%, the pest or weed control at 35 g/ha [4] was 0% and the pest or weed control at 70 g/ha [4] was 0%. The pest or weed control at 140 g/ha [4] was 0%, the pest or weed control at 17.5 g/ha [5] was 0% and the pest or weed control at 35 g/ha [5] was 10%. It also gave a pest or weed control at 70 g/ha [5] of 10%, a pest or weed control at 140 g/ha [5] of 30% and a pest or weed control at 17.5 g/ha [6] of 0%. The pest or weed control at 35 g/ha [6] was 0%, the pest or weed control at 70 g/ha [6] was 20% and the pest or weed control at 140 g/ha [6] was 35%. For the same compound, the pest or weed control at 17.5 g/ha [7] was 0%, the pest or weed control at 35 g/ha [7] was 20% and the pest or weed control at 70 g/ha [7] was 50%. The pest or weed control at 140 g/ha [7] was 50%, the pest or weed control at 17.5 g/ha [8] was 0% and the pest or weed control at 35 g/ha [8] was 0%. For the same compound, the pest or weed control at 70 g/ha [8] was 0%, the pest or weed control at 140 g/ha [8] was 0% and the pest or weed control at 17.5 g/ha [9] was 0%. It also gave a pest or weed control at 35 g/ha [9] of 0%, a pest or weed control at 70 g/ha [9] of 0% and a pest or weed control at 140 g/ha [9] of 0%. For the same compound, the pest or weed control at 17.5 g/ha [10] was 0%, the pest or weed control at 35 g/ha [10] was 0% and the pest or weed control at 70 g/ha [10] was 0%. For the same compound, the pest or weed control at 140 g/ha [10] was 0%, the pest or weed control at 17.5 g/ha [11] was 0% and the pest or weed control at 35 g/ha [11] was 0%. For the same compound, the pest or weed control at 70 g/ha [11] was 0% and the pest or weed control at 140 g/ha [11] was 0%.
